Converted amounts (≈) assume the structure as drawn. “And” between values parts separate entries of the source, which are not always exact repeats. Equal entries are not always repeated.
How the values were obtained:
[1] = system: E. mitis, E. hagani, E. praecox, E. acervulina, E. maxima, E. necatrix, E. tenella and E. brunetti; test: Prophylactic anticoccidial effect, additional trials in chickens of Habbared X breed (8 Eimeria strains); assay type: in vivo; conditions: B700 100 ppm; for anticoccidial activity (in words): JA 3 200 ppm in feed from day 8, infected day 11; for increased body weight gain as compared to the Coxistac treated group / total number of oocysts during the treatment compared to Coxistac group: JA 3 200 ppm, Coxistac 100 ppm
Protocol: In yet another evaluation of the prophylactic anticoccidial effect of the present compounds, additional trials on chickens of Habbared X breed were performed. The same test protocol as the one previously employed for this breed of chickens was used, albeit with the following following modifications: • i) On day 8 after hatch, the chickens received feed containing B700 (100 ppm), JA 3 (200 ppm) or Coxistac (100 ppm); • ii) On day 11 after hatch, the chickens were infected orally by oocysts containing a mixture of 8 mature sporulated strains, namely E. mitis, E. hagani, E. praecox, E. acervulina, E. maxima, E. necatrix, E. tenella and E. brunetti. The results of this evaluation were slightly unexpected.

M. gallisepticum = test: M.I.C. against Mycoplasma in microtitre plates (Tanner and Wu); assay type: cell-based; conditions: in vitro; for MIC: Mycoplasmoides gallisepticum
Protocol: The M.I.C. values of the compounds JA 1, JA 3, JA 5, JA 12, JA 42 and JA 43 were determined in vitro against M. gallisepticum. Enrofloxacin, tylosin and oxytetracyclin were used as reference compounds. The tested compounds were all stored and applied as solutions in distilled water. The M.I.C. evaluation was performed in microtitre plates, and the methodology employed was basically that of Tanner and Wu (Avian Disease, 36:714-717 (1992)).

[2] = system: Micrococcus Luteus (ATCC 9341); test: M.I.C. by broth dilution method (NCCLS 1988), gram-positive bacteria; assay type: cell-based; conditions: ATCC9341, in vitro broth dilution, read-out: M.I.C. values Microc. Luteus
Protocol: (§1) The antibacterial activity of the present compounds was investigated by in vitro evaluation of their M.I.C. (Minimum Inhibitory Concentration) values. The evaluation was conducted in complete accordance with the “Broth dilution method”, as outlined by the U.S. National Committee for Clinical Laboratory Standards “NCCLS 1988”.
(§2) Solutions of the present compounds were prepared by dissolving 0.01 g of a test compound in either 10% KOH (aq) or a 10% KOH/DMF mixture, after which sterile, distilled H2O was added up to a total volume of 10 ml, thereby yielding a test compound concentration of 1 000 μg/ml.
(§3) In this evaluation, the antibacterial activity of the present compounds and enrofloxacin as reference compound was tested against seven strains of gram-positive bacteria, namely Bacillus subtilus (ATCC 6633), Bacillus cereus, Streptococcus faecium, Micrococcus Luteus (ATCC 9341), Staph. aureus (ATCC 29737), Staph. epidermidis (ATCC 12228) and Staphylococcus (ATCC 6538).

[3] = system: Staphylococcus (ATCC 6538); test: as above; assay type: cell-based; conditions: ATCC6538, in vitro broth dilution, read-out: M.I.C. values Staph. (ATCC 6538)
Protocol: as §1, §2, §3

[4] = system: Staph. aureus (ATCC 29737); test: as above; assay type: cell-based; conditions: Staphylococcus aureus, ATCC29737, in vitro broth dilution
Protocol: as §1, §2, §3

[5] = system: Staph. epidermidis (ATCC 12228); test: as above; assay type: cell-based; conditions: Staphylococcus epidermidis, ATCC12228, in vitro broth dilution
Protocol: as §1, §2, §3

Bacillus cereus = test: as above; assay type: cell-based; conditions: in vitro broth dilution
Protocol: as §1, §2, §3

Streptococcus faecium = test: as above; assay type: cell-based; conditions: Enterococcus faecium, in vitro broth dilution, read-out: M.I.C. values Streptoc. faecium
Protocol: as §1, §2, §3

[6] = system: Bacillus subtilus (ATCC 6633); test: as above; assay type: cell-based; conditions: ATCC6633, in vitro broth dilution
Protocol: as §1, §2, §3

[7] = system: gram-negative bacteria (E. coli, KL. Pnemonia, Bordetella bronchiseptic, Salmonella typhi, Salmonella spp., Proteus spp., Pasterulla Duck, Pasterulla Camel); test: M.I.C. by broth dilution method, gram-negative bacteria; assay type: cell-based; conditions: eleven gram-negative strains
Protocol: as §1, §2
In the same manner as above, the M.I.C. values of the present compounds JA 3, JA 5, JA 12, JA 42, JA 73 and enrofloxacin as reference compound were investigated also on gram-negative bacteria. The gram-negative bacteria used were E. coli (ATCC 25922), E. Coli (ATCC 8739), E. Coli (ATCC 10536), E. Coli Pathogenic, KL. Pnemonia (ATCC 10031), Bordetella bronchiseptic (ATCC 4617), Salmonella typhi, Salmonella spp., Proteus spp., Pasterulla Duck and Pasterulla Camel.

T. evansi = test: Antitrypanosomal activity in vivo in white albino rats (Giemsa blood smears); conditions: individual animals
Protocol: The antitrypanosomal activity of the present compounds was evaluated in vivo on 40 white albino rats. The rats were divided into 4 groups of 10 rats each. The rats were then inoculated intraperitoneally with 10^3 organisms of T. evansi (isolated from blood of naturally infected camels) in accordance with known methodology (see Kolmer, J. A., J. Infect. Dis., 17:78-95 (1915)). The progress of the infection was monitored with the aid of standard Giemsa procedure (see Cruickshank, R., Handbook of Bacteriology, E and S Livingstone Ltd., Edinborough and London, 1961), whereby peripheral blood samples from the rats were examined under microscope. The number of Trypanosoma organisms in every blood sample was calculated and classified as follows (the numbers below are given for fields examined on a microscope slide): • +++=>10 organisms • ++=5-10 organisms • +=1-4 organisms • 0=no organisms detected
On day 1 post infection, each group of rats was subcutaneously injected with a single dose of tested compound in an amount of 50.0 mg/kg body weight. The following drugs were administered:
Group #4: saline solution (control group)

SMILES | MIC (M. gallisepticum; microtitre plates) | MIC [2] | MIC [3] | MIC [4] | MIC [5] | MIC (Bacillus cereus) | MIC (Streptococcus faecium) | MIC [6] | antibacterial activity against gram-negative bacteria compared to that of enrofloxacin [7] | further results
O=C(O)c1cn(C2CC2)c2cc(N3CCN(C(=O)Nc4ccc([N+](=O)[O-])cc4)CC3)c(F)cc2c1=O [B700, 1-cyclopropyl-6-fluoro-7-{4-[(4-nitroanilino)carbonyl]-1-piperazinyl}-4-oxo-1,4-dihydro-3-quinolinecarboxylic acid] | – | – | – | – | – | – | – | – | – | anticoccidial activity (in words) [1]: significant anticoccidial activity; increased body weight gain as compared to the Coxistac treated group [1]: approximately 10%; total number of oocysts during the treatment compared to Coxistac group [1]: higher than for the group treated with Coxistac
CCN1CCN(c2cc3c(cc2F)c(=O)c(C(=O)O)cn3C2CC2)CC1 [Enrofloxacin, enrofloxacin, reference compound] | 0.06 µg/mL (≈ 0.167 µM) | 2 µg/mL (≈ 5.56 µM) | 0.12 µg/mL (≈ 0.334 µM) | 0.25 µg/mL (≈ 0.696 µM) | 0.12 µg/mL (≈ 0.334 µM) | 0.25 µg/mL (≈ 0.696 µM) | 1 µg/mL (≈ 2.78 µM) | 0.5 µg/mL (≈ 1.39 µM) | – | –
O=C(O)c1cn(C2CC2)c2cc(N3CCN(S(=O)(=O)c4ccccc4)CC3)c(F)cc2c1=O [JA 1, 1-cyclopropyl-6-fluoro-4-oxo-7-[4-(phenylsulfonyl)-1-piperazinyl]-1,4-dihydro-3-quinolinecarboxylic acid] | 0.03 µg/mL (≈ 0.0636 µM) | 0.5 µg/mL (≈ 1.06 µM) | 0.06 µg/mL (≈ 0.127 µM) | 0.12 µg/mL (≈ 0.255 µM) | 0.06 µg/mL (≈ 0.127 µM) | 0.06 µg/mL (≈ 0.127 µM) | 0.5 µg/mL (≈ 1.06 µM) | 0.06 µg/mL (≈ 0.127 µM) | – | antibacterial activity against M. gallisepticum (in words) (M. gallisepticum): high antibacterial activity
O=C(O)c1cn(C2CC2)c2cc(N3CCN(S(=O)(=O)c4ccc([N+](=O)[O-])cc4)CC3)c(F)cc2c1=O [JA 3, 1-cyclopropyl-6-fluoro-7-{4-[(4-nitrophenyl)sulfonyl]-1-piperazinyl}-4-oxo-1,4-dihydro-3-quinolinecarboxylic acid] | 0.06 µg/mL (≈ 0.116 µM) | 1 µg/mL (≈ 1.94 µM) | 0.06 µg/mL (≈ 0.116 µM) | 0.06 µg/mL (≈ 0.116 µM) | 0.01 µg/mL (≈ 0.0194 µM) | 0.06 µg/mL (≈ 0.116 µM) | 0.25 µg/mL (≈ 0.484 µM) | 0.06 µg/mL (≈ 0.116 µM) | roughly equal to that of enrofloxacin | anticoccidial activity (in words) [1]: significant anticoccidial activity; increased body weight gain as compared to the Coxistac treated group [1]: approximately 10%; total number of oocysts during the treatment compared to Coxistac group [1]: higher than for the group treated with Coxistac
O=C(O)c1cn(C2CC2)c2cc(N3CCN(S(=O)(=O)c4ccc5ccccc5c4)CC3)c(F)cc2c1=O [JA 5, 1-cyclopropyl-6-fluoro-7-[4-(2-naphthylsulfonyl)-1-piperazinyl]-4-oxo-1,4-dihydro-3-quinolinecarboxylic acid] | 0.12 µg/mL (≈ 0.23 µM) | 0.5 µg/mL (≈ 0.959 µM) | 0.06 µg/mL (≈ 0.115 µM) | 0.06 µg/mL (≈ 0.115 µM) | 0.01 µg/mL (≈ 0.0192 µM) | 0.03 µg/mL (≈ 0.0575 µM) | 0.12 µg/mL (≈ 0.23 µM) | 0.008 µg/mL (≈ 0.0153 µM) | roughly equal to that of enrofloxacin | –
O=C(O)c1cn(C2CC2)c2cc(N3CCN(S(=O)(=O)c4ccc(Cl)s4)CC3)c(F)cc2c1=O [JA 43, 7-{4-[(5-chloro-2-thienyl)sulfonyl]-1-piperazinyl}-1-cyclopropyl-6-fluoro-4-oxo-1,4-dihydro-3-quinolinecarboxylic acid] | 0.25 µg/mL (≈ 0.488 µM) | 1 µg/mL (≈ 1.95 µM) | 0.03 µg/mL (≈ 0.0586 µM) | 0.12 µg/mL (≈ 0.234 µM) | 0.25 µg/mL (≈ 0.488 µM) | 0.12 µg/mL (≈ 0.234 µM) | 1 µg/mL (≈ 1.95 µM) | 0.25 µg/mL (≈ 0.488 µM) | – | –
O=C(O)c1cn(C2CC2)c2cc(NCC3CCCO3)c(F)cc2c1=O (stereo not shown) [JA 73, 1-cyclopropyl-6-fluoro-4-oxo-7-[(tetrahydro-2-furanylmethyl)amino]-1,4-dihydro-3-quinolinecarboxylic acid] | – | 2 µg/mL (≈ 5.77 µM) | 0.06 µg/mL (≈ 0.173 µM) | 0.12 µg/mL (≈ 0.346 µM) | 0.12 µg/mL (≈ 0.346 µM) | 0.06 µg/mL (≈ 0.173 µM) | 0.5 µg/mL (≈ 1.44 µM) | 0.12 µg/mL (≈ 0.346 µM) | roughly equal to that of enrofloxacin | –
CC(C)c1ccc(Nc2cc3c(cc2F)c(=O)c(C(=O)O)cn3C2CC2)cc1 [JA 74, 1-cyclopropyl-6-fluoro-7-(4-isopropylanilino)-4-oxo-1,4-dihydro-3-quinolinecarboxylic acid] | – | 2 µg/mL (≈ 5.26 µM) | 0.12 µg/mL (≈ 0.315 µM) | 0.12 µg/mL (≈ 0.315 µM) | 0.12 µg/mL (≈ 0.315 µM) | 0.12 µg/mL (≈ 0.315 µM) | 2 µg/mL (≈ 5.26 µM) | 0.12 µg/mL (≈ 0.315 µM) | – | Number of T. evansi per examined field (T. evansi; day 1 post infection (day of dosing), single s.c. dose 50.0 mg/kg): + (+=1-4 organisms); Number of T. evansi per examined field (T. evansi; day 3 post infection, single s.c. dose 50.0 mg/kg on day 1, 50 mg/kg): ++ (++=5-10 organisms); Number of T. evansi per examined field (T. evansi; day 5 post infection, single s.c. dose 50.0 mg/kg on day 1, 50 mg/kg): +++ (+++=>10 organisms) and 0 (0=no organisms detected) (6×) and ++ (++=5-10 organisms) (2×) and + (+=1-4 organisms); Number of T. evansi per examined field (T. evansi; day 7 post infection, single s.c. dose 50.0 mg/kg on day 1, 50 mg/kg): dead and 0 (0=no organisms detected) (9×); Number of T. evansi per examined field (T. evansi; day 9 post infection, single s.c. dose 50.0 mg/kg on day 1, 50 mg/kg): dead and 0 (0=no organisms detected) (9×); Number of T. evansi per examined field (T. evansi; day 11 post infection, single s.c. dose 50.0 mg/kg on day 1, 50 mg/kg): dead and 0 (0=no organisms detected) (9×); Number of T. evansi per examined field (T. evansi; day 13 post infection, single s.c. dose 50.0 mg/kg on day 1, 50 mg/kg): dead and 0 (0=no organisms detected) (9×)
CN(C)[C@@H]1C(=O)C(C(N)=O)=C(O)[C@@]2(O)C(=O)C3=C(O)c4c(O)cccc4[C@@](C)(O)[C@H]3[C@H](O)[C@@H]12 [Oxytetracyclin, oxytetracyclin, reference compound] | – | – | – | – | – | – | – | – | – | M.I.C. values against M. gallisepticum (M. gallisepticum; microtitre plates): 0.12
CC[C@H]1OC(=O)C[C@@H](O)[C@H](C)[C@@H](O[C@@H]2O[C@H](C)[C@@H](O[C@H]3C[C@@](C)(O)[C@@H](O)[C@H](C)O3)[C@H](N(C)C)[C@H]2O)[C@@H](CC=O)C[C@@H](C)C(=O)/C=C/C(C)=C/[C@@H]1CO[C@@H]1O[C@H](C)[C@@H](O)[C@@H](OC)[C@H]1OC [Tylosin, tylosin, reference compound] | 0.06 µg/mL (≈ 0.0655 µM) | – | – | – | – | – | – | – | – | –
